Results reported in patent publication US20260224460A1, “A PERSONAL CARE COMPOSITION” (Conopco, Inc., d/b/a UNILEVER, priority 2023, published 2026).

test system: Collagen1 gene expression (COL1A1) in WS1 cells; experiment: Collagen1 (COL1A1) gene expression by real time PCR in WS1 human dermal fibroblasts; assay type: cell-based; conditions: Table 2 (lysine series), 24 hours treatment, actives in wt %, fold change vs untreated control (1.0), normalized to GAPDH

Point of comparison: O=C(O)CCCCCCCC(=O)O [Example K3, Azeleic acid], “Gene expression (Collagen1)” value 2.0. Against it:
- O=C(O)CCCCCCC(=O)O [Example J1, Suberic acid] — lower, 1.7
- O=C(O)CCCCCC(=O)O [Example G2, Pimelic acid] — higher, 2.4
- COC(=O)CCCCCC(=O)OC [Example H2, Dimethyl pimelate] — higher, 2.4
- O=C(O)CCCCCCC(=O)O [Example J3, Suberic acid] — lower, 1.4
- COC(=O)CCCCCC(=O)OC [Example H3, Dimethyl pimelate] — higher, 3.7
- O=C(O)CCCCCCCC(=O)O [Example K2, Azeleic acid] — lower, 1.6
- NCCCC[C@H](N)C(=O)O [F, Lysine] — lower, 0.8
- O=C(O)CCCCCCC(=O)O [Example J2, Suberic acid] — higher, 2.8
- O=C(O)CCCCCCCC(=O)O [Example K1, Azeleic acid] — lower, 1.3
- O=C(O)CCCCCC(=O)O [Example G1, Pimelic acid] — lower, 1.1
- COC(=O)CCCCCC(=O)OC [Example H1, Dimethyl pimelate] — lower, 1.2
- O=C(O)CCCCCC(=O)O [Example G3, Pimelic acid] — higher, 3.0

same assay, conditions: Table 3 (additional weight ratios 2:1, 4:1, 25:1), 24 hours treatment, actives in wt %, fold change vs untreated control (1.0), normalized to GAPDH

Point of comparison: O=C(O)CCCCCCC(=O)O [Example O2, Suberic acid], “Gene expression (Collagen1)” value 3.7. Against it:
- O=C(O)CCCCCC(=O)O [Example M1, Pimelic acid] — lower, 3.0
- N=C(N)NCCCC(N)C(=O)O (centres unmarked) [Example L2, Arginine] — lower, 3.3
- N=C(N)NCCCC(N)C(=O)O (centres unmarked) [Example L3, Arginine] — higher, 4.4
- O=C(O)CCCCCC(=O)O [Example M3, Pimelic acid] — lower, 2.7
- N=C(N)NCCCC(N)C(=O)O (centres unmarked) [Example L1, Arginine] — lower, 1.5
- COC(=O)CCCCCC(=O)OC [Example N1, Dimethyl pimelate] — lower, 2.2
- O=C(O)CCCCCCC(=O)O [Example O1, Suberic acid] — lower, 2.7
- O=C(O)CCCCCCC(=O)O [Example O3, Suberic acid] — lower, 2.5
- O=C(O)CCCCCCCC(=O)O [Example P2, Azelaic acid] — lower, 2.4
- O=C(O)CCCCCCCC(=O)O [Example P3, Azelaic acid] — lower, 1.6
- COC(=O)CCCCCC(=O)OC [Example N2, Dimethyl pimelate] — lower, 3.5
- COC(=O)CCCCCC(=O)OC [Example N3, Dimethyl pimelate] — lower, 2.5
- O=C(O)CCCCCCCC(=O)O [Example P1, Azelaic acid] — lower, 1.7
- O=C(O)CCCCCC(=O)O [Example M2, Pimelic acid] — higher, 3.9

test system: Collagen1 gene expression (COL1A1) in WS1 cells; experiment: as above; assay type: cell-based; conditions: Table 1, 24 hours treatment, actives in wt %, fold change vs untreated control (1.0), normalized to GAPDH, delta delta Ct
Protocol: Experiments were carried out to study gene expression of Collagen1 with actives as shown in Table-1 individually and in combination and the data is 12ummarized therein. The methodology used to measure the gene expression is given below:
WS1 cells (human dermal fibroblasts) were grown and maintained in high glucose DMEM (HIMEDIA cat No AL219A) supplemented with 0.03 mM Calcium chloride, 1 mM sodium pyruvate and 10% FBS (Fetal Bovine Serum) at 37° C. with 5% CO2. 80% confluent cells were trypsinized and plated in 24 well plate at a density of 50,000 cells/well. The cells were incubated at 37° C. with 5% CO2 for 24 hours. Post incubation, the cells were treated with arginine (0.005%) and varying concentration of pimelic acid, dimethyl pimelate, suberic acid. Azelaic acid (0.0001, 0.001, 0.005%). 24 hours after treatment the cells were harvested for RNA extraction. RNA was extracted using Qiagen RNA extraction kit (Cat No: 74004) as per the instructions given in the kit. After extraction of RNA, cDNA synthesis was done using iscript cDNA synthesis kit (Biorad Cat no: 1708890). […] of RNA was used for cDNA synthesis. cDNA template synthesized was used for gene expression studies.
Quantification of collagen gene expression was carried out using real time PCR. […] of cDNA was used for setting up the reaction. The PCR reaction mix had […] each of forward and reverse primer, […] of PCR master mix (Sigma Cat No: KCQS00). Amplification was carried out at 95° C. for 30 seconds as the first step, followed by 40 cycles of qRT-PCR at 95° C. for 5 seconds, and at 60° C. for 20 seconds. mRNA expression was measured in triplicate and was normalized to GAPDH (glyceraldehyde 3-phosphate dehydrogenase) expression levels. The relative quantification was done using delta delta Ct method. The primers used in the study are COL1A1 forward primer 5′-[…]-3′, COL1A1 reverse primer 5′-[…]-3′, GAPDH forward primer 5′-[…]-3′, reverse primer 5′-[…]-3′. The relative quantification of gene expression was done after normalization using house keeping gene (GAPDH) and comparing with untreated control.
The fold change of gene ‘expression obtaine’ from cells treated with’ combination of test actives were compared with the gene expression obtained from cells treated with individual ingredients.

Point of comparison: O=C(O)CCCCCC(=O)O [Example B2, Pimelic acid], “Gene expression (Collagen1)” value 2.8. Against it:
- O=C(O)CCCCCCCC(=O)O [Example E1, Azeleic acid] — lower, 1.4
- COC(=O)CCCCCC(=O)OC [Example C1, Dimethyl pimelate] — lower, 1.2
- O=C(O)CCCCCCCC(=O)O [Example E3, Azeleic acid] — lower, 1.9
- O=C(O)CCCCCC(=O)O [Example B3, Pimelic acid] — higher, 3.2
- O=C(O)CCCCCCC(=O)O [Example D3, Suberic acid] — lower, 1.3
- O=C(O)CCCCCCC(=O)O [Example D2, Suberic acid] — higher, 2.9
- O=C(O)CCCCCCC(=O)O [Example D1, Suberic acid] — lower, 1.6
- N=C(N)NCCCC(N)C(=O)O (centres unmarked) [Example A, Arginine] — lower, 1.9
- COC(=O)CCCCCC(=O)OC [Example C2, Dimethyl pimelate] — lower, 2.5
- COC(=O)CCCCCC(=O)OC [Example C3, Dimethyl pimelate] — higher, 3.8
- O=C(O)CCCCCCCC(=O)O [Example E2, Azeleic acid] — lower, 1.6
- O=C(O)CCCCCC(=O)O [Example B1, Pimelic acid] — lower, 1.1
